# Data taken from patent publication US12594255B2, “Lipids with odd number of carbon atoms and their use as pharmaceutical composition or nutritional supplement” (SunRegen Healthcare AG, priority 2016, dated 2026).
# Where “and” joins values, the source holds several entries; their conditions need not be identical. Equal entries are not always repeated.
# Assays:
# Format in all cases: cell-based
# [1] = test system: mouse primary cortical neurons challenged with Aβ1-42 oligomers (AβO); assay: AβO-induced neurotoxicity, 48-h pre-incubation with test item, MTT assay; conditions: for Neuroprotection (0.01 μM) / Neuroprotection (0.1 μM): added 48 hours before 1 μM AβO; for neuroprotective effect: 1 μM, 48-h preincubation before 1 μM AβO
# Method: Mouse primary cortical neurons were pre-incubated for 48 h with vehicle, 0.05 μM DHA (used as positive control) or different concentrations of Compound C. Then, cortical neurons were treated for 24 h with vehicle (FIG. 1 left) or 1 μM AβO ([…]) and cell viability was determined using the MTT assay (n=3 determinations per condition, 1 independent experiment), Data are represented as % of vehicle control (Mean*SD). […]
# (§1) Cortical neurons from embryonic day 16-17 are prepared from C57BL6/J mouse fetuses. In brief, dissociated cortical cells were plated (50.000 cells/well) in 48-well plates pre-coated with 1.5 μg/mL polyornithine (Sigma). Cells were cultured in a chemically defined Dulbecco's modified eagle's/F12 medium free of serum and supplemented with hormones, proteins and salts. Cultures were kept at 35° C. in a humidified 6% CO2 atmosphere. Mouse cortical neurons were exposed for 24 h to 1.0 μM AβO after a 48-h pre-incubation with vehicle or different concentrations of Compound C. The AβO-induced neurotoxicity was evaluated using the MTT assay.
# All treatments were done in triplicates in 48-well plates. Cells were incubated with vehicle or 1 μM AβO in the absence or presence of different lipids at the indicated final concentrations) added at 48 hours before ADO. Cells were incubated with AβO for 24 h in a final volume of 140 μL per well.
# For positive controls, cells are treated similarly (48 hours before AβO) in the presence of 0.05 μM DHA.
# Following AβO-treatment, cell viability was measured using the MTT assay. Briefly, cells were incubated at 35° C. for 1 h with MTT (Sigma, Cat #M2128-10G. Lot #MKBH7489V). For that purpose, 14 μL of 5 mg/mL MITT (solubilized in PBS) were added in each well. After incubation, medium was removed and cells were lyzed with 150 μL DMSO for 10 minutes and protected from light. After complete solubilization of formazan, absorbance at 570 nm was recorded.
# as §1, with “cells are” for “cells were”, “Cells are” for “Cells were”, “Cultures are” for “Cultures were”, “of herb B extracts.” for “of Compound C.”, “assay. […]” for “assay.”
# [2] = test system: mouse primary cortical neurons challenged with Aβ1-42 oligomers (AβO); assay: AβO-induced neurotoxicity, test item added concomitantly (T0) or 3 h (T3) or 6 h (T6) after AβO, MTT assay; conditions: 0.1 μM HNG added 3 or 6 h after AβO
# Method: Mouse primary cortical neurons were treated at 0 h (T0) with vehicle or 1 μM AβO, Different concentrations of Compound C or HNG (0.1 μM, used as positive control) were added concomitantly to AβO at 0 h (T0)), 3 h (T3) or 6 h (T6) after AβO. Then, cortical neurons were incubated for 24 h and cell viability was determined using the MTT assay (n=3 determinations per condition, 1 independent experiment). Data are represented as % of vehicle control (Mean±SD). […]
# The aim of this study is to determine whether Compound C might present neuroprotective, anti-apoptotic and neuro-rescuing effects in in vitro AβO induced neuron death models. For that purpose, the neuro-protective effects of compound C at six concentrations were investigated using mouse primary cortical neurons challenged with Aβ1-42 oligomers (AβO) Compounds were added at different time points (concomitantly T0 with AβO and T3, or T6 after AβO) with the aim to identify rescuing effects or anti-apoptotic effects.
# Cortical neurons from embryonic day 16-17 are prepared from C57Bl6/J mouse fetuses, as described in Example I-1.
# Mouse cortical neurons were exposed for 24 h to 1.0 μM AβO. The AβO-induced neurotoxicity was evaluated using the MTT assay. […] (FIG. 4)
# The percentage of neuroprotection and anti-apoptosis effects was defined as; (neuron viability of compound C group−neuron viability of toxin treated group)/(100−neuron viability of toxin treated group)×100%. The % of neuroprotection and anti-apoptotic effects of compound C at 1000 nM is 88.7%, 52.0%, 22.3%, at T0, T3, or T6, respectively. (FIG. 4) […]
# [3] = test system: human iPSC-derived neurons challenged with Aβ1-42 oligomers (AβO); assay: AβO-induced neuronal death in human iPSC-derived neurons, NSE ELISA assay
# Method: iPSCs were treated at 0 h (T0) with vehicle or 1 μM AβO. Different concentrations of Compound C or 0.1 μM HNG (used as positive control) were added concomitantly to AβO at 0 h (T0), 3 h (T3) or 6 h (T6) after AβO. Then, were incubated for 24 h and cell viability was determined using the NSE ELISA assay (n=6 determinations per condition, 1 independent experiment), Data are represented as % of vehicle control (Mean±SD). […]
# To determine whether compound C might rescue neuronal death in human iPSC-derived neurons challenged with Aβ1-42 oligomers (AβO). In this cellular model, AβO induce a dramatic neuronal death that could be monitored by the level of neuronal specific enolase (NSE) using a specific ELISA assay. Compound C will be added at different time points (concomitantly and after AMBO) with the aim to identify rescuing effects.
# Cells (HIP-Neuronal progenitors, GlobalStem, Cat #GSC-4312, Lot #20010260) are plated in 96-well plates at a density of 60.000 cells per well and culture. Before experiments, cells are matured for five weeks and kept at 37° C. in a humidified 5% CO2 atmosphere.
# Cells are incubated with vehicle or 1 μM AβO in the absence or presence of different concentrations (i.e. 10, 100, 1000 and 10000 nM) of Compound C added concomitantly to AβO (T0), 3 h after AβO (T3), or 6 h after AβO (T6). Cells are incubated for 24 h in a final volume of 100 μL per well. For positive control, cells are treated similarly in the presence of 0.1 μM HNG (i.e. S14G variant of humanin peptide). In addition, neuronal loss is monitored using the detection of neuronal specific enolase (NSE) by ELISA assay according to supplier's recommendations (CloneCloud, Cat #SEA537Hu). A total of three data points per experimental condition will be generated here. […]
# [4] = test system: mouse primary cortical neurons; assay: Axonal growth (MAP2 immunolabelling, axonal length); conditions: 60 nM sAPPα; vehicle control 165.96±90.18 μm
# Method: Mouse primary cortical neurons were pre-incubated for 48 h with vehicle, 60 nM sAPPα (used as positive control) or different concentrations of Compound C. Then, cortical neurons were treated for 24 h with vehicle. Data are represented as % of vehicle control (Mean±SD).
# Cortical neurons from embryonic day 16-17 are prepared from C57Bl6/J mouse fetuses, as described in Example I-1. After 96-h incubation, axonal length is recorded. Briefly, cells were washed with ice-cold PBS and fixed with cold methanol. Following fixation, cells are immunolabelled using a specific antibody detecting total MAP2 protein. Antibodies to MAP2 are excellent markers on neuronal cells, their axons and neuronal dendrites. For quantification of axonal length, six independent images of labelled cells are captured using an inverted microscope. Pictures of cells are analyzed using Neuron-J software and axonal length is recorded manually. A minimum of 100 independent neurons are treated. The data are expressed as mean axonal length (expressed in μm) (Mean±SD). Statistical differences between vehicle-treated cells and cells treated with compounds are determined using a t-test.
# [5] = test system: mouse primary cortical neurons treated with 0.25 mM H2O2; assay: H2O2-induced neurotoxicity, test item added 48 hours before or 3 hours after H2O2, MTT assay
Compound,Neuroprotection (0.01 μM) [1] [%],Neuroprotection (0.1 μM) [1] [%],neuroprotective effect [1],other results
"CC/C=C\C/C=C\C/C=C\C/C=C\C/C=C\C/C=C\CCC(=O)O [DHA, Docosahexaenoic acid, reference compound]",–,–,–,"remaining cell viability ([1]; 0.05 μM DHA, 48 h pre-incubation, then 1 μM AβO 24 h): 82.0±2.6 % of control and 90.9±3.1 % of control"
"CCCCCCCCCCCCCCCCC(=O)O [GG07, Heptadecanoic acid]",27.4,21.4,lost neuroprotective effect,–
"HNG: S14G variant of humanin peptide, positive control, well-known antiapoptotic peptide (MAPRGFSCLLLLTGEIDLPVKRRA; UniProt Q8IVG9 1-24, looked up, variant S14G) [reference compound]",–,–,–,"prevention of AβO-induced cell death [2]: did not prevent cell death; prevention of AβO-induced cell death ([3]; 0.1 μM HNG added 3 or 6 h after AβO): did not prevent cell death; neuron viability ([3]; 0.1 μM HNG added at T0 with 1 μM AβO, 24 h): 85.3±15.6 % of control and 85.3±5.6 % of control"
"sAPPα: Secreted amyloid precursor protein-α, positive control [reference compound]",–,–,–,neuronal axon outgrowth (mean axonal length) [4]: 264.63±157.51 μm
"CCCCCCCCCCCCCCCCCCC(=O)O [GG09, Nonadecanoic acid]",31.2,25.9,lost neuroprotective effect,–
Cc1c(C)c2c(c(C)c1O)CCC(C)(C(=O)O)O2 (stereo not shown) [Trolox],–,–,–,inhibition of H2O2-induced cell death ([5]; 1 mM Trolox added 48 h before 0.25 mM H2O2): partially inhibited cell death induced by H2O2; inhibition of H2O2-induced cell death ([5]; 1 mM Trolox added at T3 after 0.25 mM H2O2): partially inhibited cell death induced by H2O2
"CCCCCCCCCCCCCCC(=O)O [GG05, Pentadecanoic acid]",21.9,14.0,lost neuroprotective effect,–
